Measured values: patent publication US7138361B2, “Herbicidal heterocycles” (E. I. du Pont de Nemours and Company, priority 2000, dated 2006)

Experiments:
Format in all cases: in vivo
[1] = system: velvetleaf (Abutilon theophrasti); test: Test C preemergence; details: for Plant response rating (0 to 100), Velvetleaf: Rate 250 g/ha, visual evaluation after 12 to 14 days
Method in brief: (§1)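 Herbicidal effect is a visual 0–100 score (100 = complete control) assigned versus untreated plants, 12 to 14 days after spraying in the greenhouse. Test compounds were applied in a non-phytotoxic, surfactant-containing solvent.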

[2] = system: lambsquarters (Chenopodium album); test: Test C preemergence; details: for Plant response rating (0 to 100), Lambsquarters: Rate 250 g/ha, visual evaluation after 12 to 14 days
Method in brief: as §1

[3] = system: johnsongrass (Sorghum halepense); test: Test C preemergence; details: for Plant response rating (0 to 100), Johnsongrass: Rate 250 g/ha, visual evaluation after 12 to 14 days
Method in brief: as §1

Nightshade = test: Test C preemergence
Sunflower [4] = test: Test C preemergence
[5] = system: yellow nutsedge (Cyperus esculentus); test: Test C preemergence; details: for Plant response rating (0 to 100), Nutsedge: Rate 250 g/ha, visual evaluation after 12 to 14 days
Method in brief: as §1

[6] = system: common ragweed (Ambrosia elatior); test: Test C preemergence; details: for Plant response rating (0 to 100), Ragweed, Common: Rate 250 g/ha, visual evaluation after 12 to 14 days
Method in brief: as §1

[7] = system: goosegrass (Eleusine indica); test: Test C preemergence; details: for Plant response rating (0 to 100), Goosegrass: Rate 250 g/ha, visual evaluation after 12 to 14 days
Method in brief: as §1

corn (Zea mays) [8] = test: Test C preemergence; details: for Plant response rating (0 to 100), Corn: Rate 250 g/ha, visual evaluation after 12 to 14 days
Method in brief: as §1

[9] = system: morningglory (Ipomoea hederacea); test: Test C preemergence; details: for Plant response rating (0 to 100), Morningglory: Rate 250 g/ha, visual evaluation after 12 to 14 days
Method in brief: as §1

Sunflower [10] = test: Test C preemergence; details: Rate 250 g/ha, visual evaluation after 12 to 14 days
[11] = system: morning glory (Ipomoea hederacea); test: Test B postemergence; details: 13 to 15 days
Method in brief: (§2)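 Post-treatment, species sat 13–15 days under greenhouse conditions before visual scoring against controls, 0 (no effect) through 100 (complete control). Application preemergence to sown seeds or postemergence at 1- to 4-leaf stage, using a non-phytotoxic solvent/surfactant formulation.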

[12] = system: pigweed (Amaranthus retroflexus); test: Test B postemergence; details: 13 to 15 days
Method in brief: as §2

[13] = system: cocklebur (Xanthium strumarium); test: Test B postemergence; details: 13 to 15 days
Method in brief: as §2

[14] = system: velvetleaf (Abutilon theophrasti); test: Test B postemergence; details: 13 to 15 days
Method in brief: as §2

wild oat (Avena fatua) = test: Test B postemergence; details: 13 to 15 days
Method in brief: as §2

[15] = system: barnyardgrass (Echinochloa crus-galli); test: Test B postemergence; details: 13 to 15 days
Method in brief: as §2

[16] = system: crabgrass (Digitaria sanguinalis); test: Test B postemergence; details: 13 to 15 days
Method in brief: as §2

[17] = system: giant foxtail (Setaria faberii); test: Test B postemergence; details: 13 to 15 days
Method in brief: as §2

[18] = system: Surinam grass (Brachiaria decumbens); test: Test B postemergence; details: 13 to 15 days
Method in brief: as §2

corn (Zea mays) [19] = test: Test B postemergence; details: 13 to 15 days
Method in brief: as §2

[20] = system: wheat (Triticum aestivum); test: Test B postemergence; details: 13 to 15 days
Method in brief: as §2

[21] = Preemergence, Rate 500 g/ha, scale 0 to 100
[22] = Rate 62 g/ha, scale 0 to 100, 0 no effect, 100 complete control
[23] = preemergence, Rate 125 g/ha, scale 0 to 100, 0 no effect, 100 complete control
[24] = Rate 125 g/ha, scale 0 to 100, 0 no effect, 100 complete control
[25] = Rate 125 g/ha, scale 0 (no effect) to 100 (complete control)
[26] = Rate 500 g/ha, scale 0 to 100, 0 is no effect, 100 is complete control

O=C1C(n2ccc(C3CCC3)n2)SCN1c1cccc(OC(F)(F)F)c1 (centres unmarked) [Compound 38]
10: Plant response rating, Morningglory [11, 25]
50: Plant response rating, Johnsongrass [3, 23]
60: Plant response rating, Sunflower (Sunflower [4]; Rate 500 g/ha, scale 0 to 100) | Plant response rating (0 to 100), Sunflower (Sunflower [10]) | Plant response rating, Pigweed [12, 25] | Plant response rating, Crabgrass [16, 25]
100: Plant response rating, Lambsquarters [2, 21] | Plant response rating (0 to 100), Lambsquarters ([2]; preemergence) | Plant response rating, Lambsquarters [2, 23] | Plant response rating, Ragweed, Common [6, 21] | Plant response rating, Goosegrass [7, 21] | Plant response rating (0 to 100), Goosegrass ([7]; preemergence) | Plant response rating, Barnyardgrass [15, 25] | Plant response rating, Barnyardgrass [15, 26] | Plant response rating, Crabgrass [16, 26]
30: Plant response rating, Foxtail, Giant [17, 25]
40: Plant response rating, Johnsongrass [3, 22] | Plant response rating (0 to 100), Ragweed, Common ([6]; preemergence) | Plant response rating, Cocklebur [13, 25]
0: Plant response rating, Velvetleaf [1, 22] | Plant response rating, Velvetleaf [1, 23] | Plant response rating, Nightshade (Nightshade; [22]) | Plant response rating, Nightshade (Nightshade; [24]) | Plant response rating, Sunflower (Sunflower [4]; [22]) | Plant response rating, Nutsedge [5, 22] | Plant response rating (0 to 100), Nutsedge ([5]; preemergence) | Plant response rating, Nutsedge [5, 23] | Plant response rating, Ragweed, Common [6, 22] | Plant response rating, Corn (corn (Zea mays) [8]; [21]) | Plant response rating, Corn (corn (Zea mays) [8]; [22]) | Plant response rating (0 to 100), Corn (corn (Zea mays) [8]; preemergence) | Plant response rating, Corn (corn (Zea mays) [8]; [23]) | Plant response rating, Morningglory [9, 21] | Plant response rating (0 to 100), Morningglory ([9]; preemergence) | Plant response rating, Morningglory [9, 23] | Plant response rating, Velvetleaf [14, 25] | Plant response rating, Wild Oat (wild oat (Avena fatua); [25]) | Plant response rating, Wild Oat (wild oat (Avena fatua); [26]) | Plant response rating, Surinam grass [18, 25] | Plant response rating, Surinam grass [18, 26] | Plant response rating, Corn (corn (Zea mays) [19]; [25]) | Plant response rating, Corn (corn (Zea mays) [19]; [26]) | Plant response rating, Wheat [20, 25] | Plant response rating, Wheat [20, 26]
70: Plant response rating, Nutsedge [5, 21] | Plant response rating, Velvetleaf [14, 26]
90: Plant response rating, Lambsquarters [2, 22] | Plant response rating, Johnsongrass [3, 21] | Plant response rating (0 to 100), Johnsongrass ([3]; preemergence) | Plant response rating, Nightshade (Nightshade; Rate 500 g/ha, scale 0 to 100) | Plant response rating, Goosegrass [7, 23]
20: Plant response rating, Velvetleaf [1, 21] | Plant response rating (0 to 100), Velvetleaf ([1]; preemergence) | Plant response rating, Ragweed, Common [6, 23] | Plant response rating, Morningglory [11, 26]
80: Plant response rating, Goosegrass [7, 22] | Plant response rating, Pigweed [12, 26] | Plant response rating, Cocklebur [13, 26] | Plant response rating, Foxtail, Giant [17, 26]

O=C1C(n2ccc(C3CCC3)n2)OCN1c1cccc(C(F)(F)F)c1 (centres unmarked) [Compound 39]
100: Plant response rating, Lambsquarters [2, 21] | Plant response rating, Lambsquarters [2, 22] | Plant response rating (0 to 100), Lambsquarters ([2]; preemergence) | Plant response rating, Lambsquarters [2, 23] | Plant response rating, Goosegrass [7, 21] | Plant response rating (0 to 100), Goosegrass ([7]; preemergence) | Plant response rating, Barnyardgrass [15, 26]
60: Plant response rating, Pigweed [12, 25]
80: Plant response rating, Goosegrass [7, 22]
0: Plant response rating, Velvetleaf [1, 21] | Plant response rating, Velvetleaf [1, 22] | Plant response rating (0 to 100), Velvetleaf ([1]; preemergence) | Plant response rating, Velvetleaf [1, 23] | Plant response rating, Johnsongrass [3, 22] | Plant response rating, Johnsongrass [3, 23] | Plant response rating, Nightshade (Nightshade; [22]) | Plant response rating, Nightshade (Nightshade; [24]) | Plant response rating, Nightshade (Nightshade; Rate 500 g/ha, scale 0 to 100) | Plant response rating, Sunflower (Sunflower [4]; [22]) | Plant response rating, Sunflower (Sunflower [4]; Rate 500 g/ha, scale 0 to 100) | Plant response rating, Nutsedge [5, 22] | Plant response rating (0 to 100), Nutsedge ([5]; preemergence) | Plant response rating, Nutsedge [5, 23] | Plant response rating, Ragweed, Common [6, 22] | Plant response rating (0 to 100), Ragweed, Common ([6]; preemergence) | Plant response rating, Ragweed, Common [6, 23] | Plant response rating, Corn (corn (Zea mays) [8]; [22]) | Plant response rating (0 to 100), Corn (corn (Zea mays) [8]; preemergence) | Plant response rating, Corn (corn (Zea mays) [8]; [23]) | Plant response rating, Morningglory [9, 21] | Plant response rating, Morningglory [9, 22] | Plant response rating (0 to 100), Morningglory ([9]; preemergence) | Plant response rating, Morningglory [9, 23] | Plant response rating (0 to 100), Sunflower (Sunflower [10]) | Plant response rating, Morningglory [11, 25] | Plant response rating, Morningglory [11, 26] | Plant response rating, Cocklebur [13, 25] | Plant response rating, Cocklebur [13, 26] | Plant response rating, Velvetleaf [14, 25] | Plant response rating, Velvetleaf [14, 26] | Plant response rating, Wild Oat (wild oat (Avena fatua); [25]) | Plant response rating, Wild Oat (wild oat (Avena fatua); [26]) | Plant response rating, Barnyardgrass [15, 25] | Plant response rating, Crabgrass [16, 25] | Plant response rating, Foxtail, Giant [17, 25] | Plant response rating, Foxtail, Giant [17, 26] | Plant response rating, Surinam grass [18, 25] | Plant response rating, Surinam grass [18, 26] | Plant response rating, Corn (corn (Zea mays) [19]; [25]) | Plant response rating, Wheat [20, 25] | Plant response rating, Wheat [20, 26]
90: Plant response rating, Johnsongrass [3, 21] | Plant response rating, Goosegrass [7, 23] | Plant response rating, Pigweed [12, 26]
10: Plant response rating, Corn (corn (Zea mays) [19]; [26])
20: Plant response rating, Ragweed, Common [6, 21]
70: Plant response rating (0 to 100), Johnsongrass ([3]; preemergence) | Plant response rating, Corn (corn (Zea mays) [8]; [21]) | Plant response rating, Crabgrass [16, 26]
40: Plant response rating, Nutsedge [5, 21]
